35 compounds from US20250243196A1, “CITRON KINASE INHIBITORS” (The Cleveland Clinic Foundation, priority 2021, published 2025) can be followed below.

Structures are written as SMILES.

Sequence of Citron kinase (O14578 whole entry): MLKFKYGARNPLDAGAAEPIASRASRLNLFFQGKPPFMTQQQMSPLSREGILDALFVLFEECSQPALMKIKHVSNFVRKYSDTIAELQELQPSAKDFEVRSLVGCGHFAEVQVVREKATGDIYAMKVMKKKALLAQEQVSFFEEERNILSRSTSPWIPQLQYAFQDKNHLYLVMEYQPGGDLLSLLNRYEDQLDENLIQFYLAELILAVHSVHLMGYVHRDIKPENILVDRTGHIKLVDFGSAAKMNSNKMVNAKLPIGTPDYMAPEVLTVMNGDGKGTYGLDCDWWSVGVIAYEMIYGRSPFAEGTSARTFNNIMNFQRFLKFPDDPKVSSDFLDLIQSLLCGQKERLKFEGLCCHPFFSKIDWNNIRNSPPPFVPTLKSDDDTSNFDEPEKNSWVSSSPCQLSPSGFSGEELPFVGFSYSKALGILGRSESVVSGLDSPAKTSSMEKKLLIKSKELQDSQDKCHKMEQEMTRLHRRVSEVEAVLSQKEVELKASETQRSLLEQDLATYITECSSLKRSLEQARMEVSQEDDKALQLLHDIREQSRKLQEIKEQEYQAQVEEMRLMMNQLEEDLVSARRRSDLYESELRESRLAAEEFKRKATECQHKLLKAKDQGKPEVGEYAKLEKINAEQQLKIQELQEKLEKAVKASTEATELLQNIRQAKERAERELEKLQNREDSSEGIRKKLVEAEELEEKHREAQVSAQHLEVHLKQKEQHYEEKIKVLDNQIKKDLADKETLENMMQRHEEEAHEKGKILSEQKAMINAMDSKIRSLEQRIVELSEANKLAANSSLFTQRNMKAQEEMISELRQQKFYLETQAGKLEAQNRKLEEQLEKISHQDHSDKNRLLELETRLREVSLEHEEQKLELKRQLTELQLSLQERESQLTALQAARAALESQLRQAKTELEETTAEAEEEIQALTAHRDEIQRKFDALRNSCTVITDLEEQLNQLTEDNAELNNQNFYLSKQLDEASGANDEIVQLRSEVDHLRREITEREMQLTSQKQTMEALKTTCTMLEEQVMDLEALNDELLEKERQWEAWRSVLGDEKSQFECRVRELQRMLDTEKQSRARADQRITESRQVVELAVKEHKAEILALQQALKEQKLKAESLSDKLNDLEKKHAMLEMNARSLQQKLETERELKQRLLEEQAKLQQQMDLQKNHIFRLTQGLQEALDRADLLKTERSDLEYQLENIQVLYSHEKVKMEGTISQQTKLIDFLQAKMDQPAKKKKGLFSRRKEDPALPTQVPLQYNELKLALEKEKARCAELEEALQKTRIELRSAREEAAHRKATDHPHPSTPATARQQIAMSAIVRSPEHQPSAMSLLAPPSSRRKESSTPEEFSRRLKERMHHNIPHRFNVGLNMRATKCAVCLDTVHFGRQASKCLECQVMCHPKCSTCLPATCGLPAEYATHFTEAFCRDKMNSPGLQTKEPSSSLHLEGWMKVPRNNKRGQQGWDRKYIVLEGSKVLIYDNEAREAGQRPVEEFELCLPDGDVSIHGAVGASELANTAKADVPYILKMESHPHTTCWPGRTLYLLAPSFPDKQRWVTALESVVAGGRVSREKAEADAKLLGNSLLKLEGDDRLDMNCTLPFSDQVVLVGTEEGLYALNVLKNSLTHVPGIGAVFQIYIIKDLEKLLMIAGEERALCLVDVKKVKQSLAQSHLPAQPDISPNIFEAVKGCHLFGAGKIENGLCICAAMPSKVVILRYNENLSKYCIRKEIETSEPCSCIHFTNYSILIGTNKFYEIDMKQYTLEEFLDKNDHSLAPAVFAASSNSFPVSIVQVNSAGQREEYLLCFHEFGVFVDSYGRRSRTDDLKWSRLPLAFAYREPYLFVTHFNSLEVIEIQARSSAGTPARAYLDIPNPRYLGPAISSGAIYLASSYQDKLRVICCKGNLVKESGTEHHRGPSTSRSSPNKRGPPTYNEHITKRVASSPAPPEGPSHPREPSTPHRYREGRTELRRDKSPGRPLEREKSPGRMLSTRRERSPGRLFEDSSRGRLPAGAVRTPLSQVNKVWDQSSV

The assay concerns the target Citron kinase (Homo sapiens (Human), UniProt O14578). Briefly: Radiometric citron kinase assay (Eurofins Cat #16-040KP). The following applies: mean of at least two independent assays; read-out: Radiometric CitK IC50. Format: biochemical. From the text: In some embodiments, the step of contacting the sample with the compound comprises administering the compound to a subject (e.g., a subject) suffering from cancer. Methods of determining kinase inhibition are well known in the art. For example, kinase activity of an enzyme and the inhibitory capacity of a test compound can be determined by measuring enzyme specific phosphorylation of a substrate. Commercial assays and kits can be employed. For example, kinase inhibition can be determined using a radiometric binding assay, such as using KinaseProfiler™ technology (Eurofins Discovery). This assay method directly detects product formation without the use of modified substrates or coupling enzymes. Test compounds are incubated with kinase, substrate, required cofactors and radioisotope labeled ATP. Following incubation, unreacted radioactive ATP is removed by washing and incorporation of the radiolabeled phosphate into the kinase substrate is assayed to detect phosphoryltransferase activity, which is directly proportional to the amount of phosphorylated substrate. Inhibition of the kinase by a kinase inhibitor prevents phosphorylation of the substrate and thereby limits the incorporation of radiolabeled phosphate. Such an assay is compatible with a microwell assay format, allowing simultaneous determination of IC50 of multiple compounds.
Compounds were screened for biochemical kinase activity (Eurofins Discovery, France) using one of two assays. […] All values in Table 1 are the mean of at least two independent assays.
In the case of `CNCC(=O)Nc1ccc(-c2ccnc3[nH]ccc23)cc1` [Compound F-2, N-(4-(1H-pyrrolo[2,3-b]pyridin-4-yl)phenyl)-2-(methylamino)acetamide], the half-inhibitory concentration (IC50) was 728 nM.

`CN(C)CC(=O)Nc1ccc(-c2ccnc3[nH]ccc23)cc1` [Compound F-3, 2-(Dimethylamino)-N-[4-(1H-pyrrolo[2,3-b]pyridin-4-yl)phenyl]acetamide]: the concentration for half-maximal inhibition (IC50) worked out at 1060 nM. Then `C[C@H](N)C(=O)Nc1ccc(-c2ccnc3[nH]ccc23)cc1` [Compound F-4, (2S)-2-Amino-N-[4-(1H-pyrrolo[2,3-b]pyridin-4-yl)phenyl]propenamide], with 3000 nM; and `C[C@@H](N)C(=O)Nc1ccc(-c2ccnc3[nH]ccc23)cc1` [Compound F-5, (2R)-2-Amino-N-[4-(1H-pyrrolo[2,3-b]pyridin-4-yl)phenyl]propenamide], with 806 nM. `CC[C@H](C)[C@H](N)C(=O)Nc1ccc(-c2ccnc3[nH]ccc23)cc1` [Compound F-10, (2S,3S)-2-Amino-3-methyl-N-[4-(1H-pyrrolo[2,3-b]pyridin-4-yl)phenyl]pentanamide]: the 50% inhibitory concentration (IC50) was determined as 91.9 nM.

As to `CC[C@@H](C)[C@@H](N)C(=O)Nc1ccc(-c2ccnc3[nH]ccc23)cc1` [Compound F-11, (2R,3R)-2-Amino-3-methyl-N-[4-(1H-pyrrolo[2,3-b]pyridin-4-yl)phenyl]pentanamide], the 50% inhibitory concentration (IC50) worked out at 315 nM.

On to `CCC[C@@H](N)C(=O)Nc1ccc(-c2ccnc3[nH]ccc23)cc1` [Compound F-14, (2R)-2-Amino-N-[4-(1H-pyrrolo[2,3-b]pyridin-4-yl)phenyl]pentanamide], for which the IC50 came to 69.6 nM. The value for `NC(CC(F)(F)F)C(=O)Nc1ccc(-c2ccnc3[nH]ccc23)cc1` (centres unmarked) [Compound F-22, 2-Amino-4,4,4-trifluoro-N-[4-(1H-pyrrolo[2,3-b]pyridin-4-yl)phenyl]butanamide] was 554 nM; that for `NC(C(=O)Nc1ccc(-c2ccnc3[nH]ccc23)cc1)C1(C(F)(F)F)CC1` (centres unmarked) [Compound F-23, 2-Amino-N-[4-(1H-pyrrolo[2,3-b]pyridin-4-yl)phenyl]-2-[1-(trifluoromethyl)cyclopropyl]acetamide] was 172 nM. Turning to `N[C@H](CCC(F)(F)F)C(=O)Nc1ccc(-c2ccnc3[nH]ccc23)cc1` [Compound F-24, (2R)-2-Amino-5,5,5-trifluoro-N-[4-(1H-pyrrolo[2,3-b]pyridin-4-yl)phenyl]pentanamide], the IC50 is 66.7 nM. Then `COCCC(N)C(=O)Nc1ccc(-c2ccnc3[nH]ccc23)cc1` (centres unmarked) [Compound F-26, 2-Amino-4-methoxy-N-[4-(1H-pyrrolo[2,3-b]pyridin-4-yl)phenyl]butanamide], with 2470 nM.

With `CC(O)[C@H](N)C(=O)Nc1ccc(-c2ccnc3[nH]ccc23)cc1` (stereo partly drawn) [Compound F-29, (2S)-2-Amino-3-hydroxy-N-[4-(1H-pyrrolo[2,3-b]pyridin-4-yl)phenyl]butanamide], the IC50 was 778 nM. Regarding `CC(O)[C@@H](N)C(=O)Nc1ccc(-c2ccnc3[nH]ccc23)cc1` (stereo partly drawn) [Compound F-30, (2R)-2-Amino-3-hydroxy-N-[4-(1H-pyrrolo[2,3-b]pyridin-4-yl)phenyl]butanamide], the IC50 was 218 nM. The value for `CC(C)(O)[C@@H](N)C(=O)Nc1ccc(-c2ccnc3[nH]ccc23)cc1` [Compound F-31, (2R)-2-Amino-3-hydroxy-3-methyl-N-[4-(1H-pyrrolo[2,3-b]pyridin-4-yl)phenyl]butanamide] was 52.4 nM; that for `CCN[C@H](CC(C)C)C(=O)Nc1ccc(-c2ccnc3[nH]ccc23)cc1` [Compound F-43, (2R)-2-(Ethylamino)-4-methyl-N-[4-(1H-pyrrolo[2,3-b]pyridin-4-yl)phenyl]pentanamide] was 209 nM. The value for `CC(C)C[C@@H](NC1CC1)C(=O)Nc1ccc(-c2ccnc3[nH]ccc23)cc1` [Compound F-44, (2R)-2-(Cyclopropylamino)-4-methyl-N-[4-(1H-pyrrolo[2,3-b]pyridin-4-yl)phenyl]pentanamide] was 555 nM. Consider `CC(C)C[C@@H](NCC1CC1)C(=O)Nc1ccc(-c2ccnc3[nH]ccc23)cc1` [Compound F-45, (2R)-2-(Cyclopropymethylamino)-4-methyl-N-[4-[1H-pyrrolo[2,3-b]pyridin-4-yl]phenyl]pentanamide], for which the IC50 came out at 683 nM.

Regarding `COCCN[C@H](CC(C)C)C(=O)Nc1ccc(-c2ccnc3[nH]ccc23)cc1` [Compound F-46, (2R)-2-(2-Methoxyethylamino)-4-methyl-N-[4-(1H-pyrrolo[2,3-b]pyridin-4-yl)phenyl]pentanamide], the IC50 was found to be 1260 nM. `CC(C)C[C@@H](NCC(F)(F)F)C(=O)Nc1ccc(-c2ccnc3[nH]ccc23)cc1` [Compound F-47, (2R)-4-Methyl-N-[4-(1H-pyrrolo[2,3-b]pyridin-4-yl)phenyl]-2-(2,2,2-trifluoroethylamino)pentanamide]: the IC50 was 3000 nM. The value for `Cc1cc2c(-c3ccc(NC(=O)[C@H](N)C(C)(C)C)cc3)ccnc2[nH]1` [Compound F-50, (2R)-2-Amino-3,3-dimethyl-N-[4-(2-methyl-1H-pyrrolo[2,3-b]pyridin-4-yl)phenyl]butanamide] was 59 nM. Then `Cc1cc2c(-c3ccc(NC(=O)[C@@H](N)C(C)(C)C)cc3)ccnc2[nH]1` [Compound F-51, (2S)-2-Amino-3,3-dimethyl-N-[4-(2-methyl-1H-pyrrolo[2,3-b]pyridin-4-yl)phenyl]butanamide], with 366 nM; and `Cc1cc2c(-c3ccc(NC(=O)[C@H](N)CC(C)(C)C)cc3)ccnc2[nH]1` [Compound F-52, (2R)-2-Amino-4,4-dimethyl-N-[4-(2-methyl-1H-pyrrolo[2,3-b]pyridin-4-yl)phenyl]pentanamide], with 9.1 nM.

Turning to `CC(C)(C)[C@@H](N)C(=O)Nc1ccc(-c2ccnc3[nH]c(C4CC4)cc23)cc1` [Compound F-54, (2R)-2-Amino-N-[4-(2-cyclopropyl-1H-pyrrolo[2,3-b]pyridin-4-yl)phenyl]-3,3-dimethyl-butanamide], the half-inhibitory concentration (IC50) is 35.1 nM. The value for `CC(C)(C)[C@@H](N)C(=O)Nc1ccc(-c2ccnc3[nH]c(C(F)(F)F)cc23)cc1` [Compound F-56, (2R)-2-Amino-3,3-dimethyl-N-[4-[2-(trifluoromethyl)-1H-pyrrolo[2,3-b]pyridin-4-yl]phenyl]butanamide] was 108 nM; that for `Cc1cc(NC(=O)[C@H](N)CC(C)(C)C)ccc1-c1ccnc2[nH]ccc12` [Compound F-60, (2R)-2-Amino-4,4-dimethyl-N-[3-methyl-4-(1H-pyrrolo[2,3-b]pyridin-4-yl)phenyl]pentanamide] was 7.8 nM. Take `CC(C)(C)[C@@H](N)C(=O)Nc1ccc(-c2ccnc3[nH]ccc23)c(F)c1` [Compound F-66, (2R)-2-Amino-N-[3-fluoro-4-(1H-pyrrolo[2,3-b]pyridin-4-yl)phenyl]-3,3-dimethyl-butanamide]: the IC50 is 57.7 nM. As to `CC(C)(C)[C@@H](N)C(=O)Nc1ccc(-c2ccnc3[nH]ccc23)cc1F` [Compound F-71, (2R)-2-Amino-N-[2-fluoro-4-(1H-pyrrolo[2,3-b]pyridin-4-yl)phenyl]-3,3-dimethyl-butanamide], the IC50 turned out to be 64.6 nM. The value for `Cc1c(-c2ccnc3[nH]ccc23)ccc(NC(=O)[C@H](N)CC(C)C)c1F` [Compound F-72, (2R)-2-Amino-N-[2-fluoro-3-methyl-4-(1H-pyrrolo[2,3-b]pyridin-4-yl)phenyl]-4-methyl-pentanamide] was 17 nM; that for `Cc1cc(NC(=O)[C@H](N)CC(C)C)c(F)cc1-c1ccnc2[nH]ccc12` [Compound F-73, (2R)-2-Amino-N-[2-fluoro-5-methyl-4-(1H-pyrrolo[2,3-b]pyridin-4-yl)phenyl]-4-methyl-pentanamide] was 694 nM. `Cc1cc(NC(=O)[C@H](N)C(C)(C)C)c(F)cc1-c1ccnc2[nH]ccc12` [Compound F-74, (2R)-2-Amino-N-[2-fluoro-5-methyl-4-(1H-pyrrolo[2,3-b]pyridin-4-yl)phenyl]-3,3-dimethyl-butanamide]: the IC50 was 1060 nM.

Turning to `CC(C)C[C@@H](N)C(=O)Nc1ccc(-c2ccnc3[nH]ccc23)cc1C(F)(F)F` [Compound F-76, (2R)-2-Amino-4-methyl-N-[4-(1H-pyrrolo[2,3-b]pyridin-4-yl)-2-(trifluoromethyl)phenyl]pentanamide], the IC50 is 316 nM. With `CC(C)C[C@@H](N)C(=O)Nc1ccc(-c2ccnc3[nH]ccc23)c(OC(F)F)c1` [Compound F-82, (R)-2-Amino-N-(3-(difluoromethoxy)-4-(1H-pyrrolo[2,3-b]pyridin-4-yl)phenyl)-4-methylpentanamide], the IC50 stood at 21.5 nM.

Regarding `CC(C)C[C@@H](N)C(=O)Nc1cccc(-c2ccnc3[nH]ccc23)c1` [Compound F-87, (2R)-2-Amino-4-methyl-N-[3-(1H-pyrrolo[2,3-b]pyridin-4-yl)phenyl]pentanamide], the IC50 turned out to be 245 nM. The value for `CCc1cc(NC(=O)[C@H](N)C(C)(C)C)ccc1-c1ccnc2[nH]ccc12` [Compound F-88, (2R)-2-Amino-N-[3-ethyl-4-(1H-pyrrolo[2,3-b]pyridin-4-yl)phenyl]-3,3-dimethyl-butanamide] was 57.5 nM. In the case of `Cc1cc2c(-c3ccc(NC(=O)[C@H](N)C(C)(C)C)cc3C)ccnc2[nH]1` [Compound F-91, (2R)-2-Amino-3,3-dimethyl-N-[3-methyl-4-(2-methyl-1H-pyrrolo[2,3-b]pyridin-4-yl)phenyl]butanamide], the half-inhibitory concentration (IC50) stood at 48.8 nM.

By IC50 is commonly meant the concentration that inhibits the measured activity by half.
